From ChEMBL document CHEMBL1133222 (2000)

Key:
[1] = target: T1, Endothelin-1 receptor (Rattus norvegicus) (UniProt P26684); experiment: Inhibition of (125 I)-endothelin 1 binding to endothelin A receptor in rat ventricle
T1 sequence (whole entry): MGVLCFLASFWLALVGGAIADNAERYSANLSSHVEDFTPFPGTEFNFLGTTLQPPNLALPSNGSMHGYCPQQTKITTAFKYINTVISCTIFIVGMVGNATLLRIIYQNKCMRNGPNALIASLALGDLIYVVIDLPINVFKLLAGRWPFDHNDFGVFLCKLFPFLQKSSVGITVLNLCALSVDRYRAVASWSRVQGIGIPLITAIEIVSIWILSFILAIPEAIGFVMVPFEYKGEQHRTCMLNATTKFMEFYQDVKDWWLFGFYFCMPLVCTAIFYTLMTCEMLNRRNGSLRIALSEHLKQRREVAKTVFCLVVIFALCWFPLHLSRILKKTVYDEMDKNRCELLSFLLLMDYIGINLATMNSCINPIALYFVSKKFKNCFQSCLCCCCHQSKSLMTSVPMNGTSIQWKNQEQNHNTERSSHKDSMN

[2] = target: T2, Endothelin receptor type B (Rattus norvegicus) (UniProt P21451); details: Cerebellum
T2 sequence (whole entry): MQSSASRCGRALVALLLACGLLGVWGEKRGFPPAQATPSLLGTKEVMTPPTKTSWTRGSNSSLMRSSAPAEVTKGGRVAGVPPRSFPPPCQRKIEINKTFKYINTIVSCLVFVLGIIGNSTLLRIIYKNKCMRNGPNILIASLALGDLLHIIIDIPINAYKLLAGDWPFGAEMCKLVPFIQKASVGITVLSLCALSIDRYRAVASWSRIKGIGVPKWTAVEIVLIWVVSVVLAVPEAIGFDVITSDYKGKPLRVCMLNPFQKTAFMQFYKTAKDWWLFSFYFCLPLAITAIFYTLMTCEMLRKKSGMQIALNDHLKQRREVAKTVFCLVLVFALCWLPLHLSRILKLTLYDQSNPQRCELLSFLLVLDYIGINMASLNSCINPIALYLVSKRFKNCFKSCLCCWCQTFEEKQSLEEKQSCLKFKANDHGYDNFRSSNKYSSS
Description: Inhibition of (125 I)-endothelin 1 binding to endothelin B receptor in rat cerebellum

[3] = system: Mus musculus; experiment: Effective dose for ET-1 induced death in mice after peroral administration; type: functional; details: po
[4] = system: Rattus norvegicus; experiment: Effective dose in rat after intravenous administration; type: functional

Row | SMILES | Binding affinity [1] [nM] | Binding affinity [2] [nM] | ED50 [3] [mg/kg] | ED50 [4] [mg/kg]
1 | O=C(O)c1c(Cc2ccco2)c(=O)c2ccccc2n1Cc1cc2c(cc1Cl)OCO2 | 5.7 | 1890 |  | 
2 | O=C(O)c1cccc(Cc2c(C(=O)O)n(Cc3cc4c(cc3Cl)OCO4)c3ccccc3c2=O)c1 | 3 | 500 |  | 
3 | O=C(O)c1cc(=O)c2ccccc2n1Cc1cc2c(cc1Cl)OCO2 | 8700 | 29000 |  | 
4 | COc1cc(Cc2c(C(=O)O)n(Cc3cc4c(cc3Cl)OCO4)c3ccccc3c2=O)cc(OC)c1OC | 1.9 | 789 |  | 
5 | O=C(O)c1c(CC2CCCCC2)c(=O)c2ccccc2n1Cc1cc2c(cc1Cl)OCO2 | 1.1 | 100 |  | 
6 | CCc1cc2c(cc1Cn1c(C(=O)[O-])c(Cc3cccc(C(=O)[O-])c3)c(=O)c3ccccc31)OCO2.[K+].[K+] | 0.69 | 571 | 10 | 0.1
7 | CCOC(=O)C[C@H]1CC[C@H](Cc2c(C(=O)O)n(Cc3cc4c(cc3Cl)OCO4)c3ccccc3c2=O)CC1 | 4.7 | 5000 |  | 
8 | COc1ccc(Cc2c(C(=O)O)n(Cc3cc4c(cc3Cl)OCO4)c3ccccc3c2=O)c(OCC(=O)O)c1 | 54.3 | 549 |  | 
9 | O=C(O)c1c(Cc2cccc(Cl)c2Cl)c(=O)c2ccccc2n1Cc1cc2c(cc1Cl)OCO2 | 10.9 | 570 |  | 
10 | O=C(O)CCCCCc1c(C(=O)O)n(Cc2cc3c(cc2Cl)OCO3)c2ccccc2c1=O | 93 | 9500 |  | 
11 | COC(=O)c1cccc(Cc2c(C(=O)O)n(Cc3cc4c(cc3Cl)OCO4)c3ccccc3c2=O)c1 | 8.2 | 747 |  | 
12 | O=C(O)C[C@H]1CC[C@H](Cc2c(C(=O)O)n(Cc3cc4c(cc3Cl)OCO4)c3ccccc3c2=O)CC1 | 3.4 | 6630 |  | 
13 | O=C(O)c1c(Cc2ccccc2)c(=O)c2ccccc2n1Cc1cc2c(cc1Cl)OCO2 | 4.1 | 157 |  | 
14 | CCCCc1cn(Cc2ccc(-c3ccccc3C(=O)O)cc2)c2ccc(Cn3ccc4ccccc43)cc2c1=O | 7600 | 110000 |  | 
15 | O=C(O)c1c(Cc2ccoc2)c(=O)c2ccccc2n1Cc1cc2c(cc1Cl)OCO2 | 29 | 1900 |  | 
16 | O=C(O)c1c(Cc2cccnc2)c(=O)c2ccccc2n1Cc1cc2c(cc1Cl)OCO2 | 20.4 | 1600 |  | 
17 | CCCCc1cn(Cc2ccc(-c3ccccc3-n3cnnn3)cc2)c2ccc(CSc3ccccn3)cc2c1=O | 11000 | 12000 |  | 

The next lines start with results.

Row | Binding affinity [1] [nM] | Binding affinity [2] [nM] | SMILES | ED50 [3] [mg/kg] | ED50 [4] [mg/kg]
18 | 10.7 | 606 | COc1ccc(Cc2c(C(=O)O)n(Cc3ccc4c(c3)OCO4)c3ccccc3c2=O)cc1 |  | 
19 | 9.5 | 244 | COc1ccc(Cc2c(C(=O)O)n(Cc3cc(OC)c4c(c3)OCO4)c3ccccc3c2=O)cc1 |  | 
20 | 255 | 16000 | COc1ccc(Cn2c(C(=O)O)c(Cc3ccc4c(c3)OCO4)c(=O)c3ccccc32)cc1 |  | 
21 | 5.7 | 166 | O=C(O)c1c(Cc2ccc(Br)cc2)c(=O)c2ccccc2n1Cc1cc2c(cc1Cl)OCO2 |  | 
22 | 4.6 | 17100 | O=C(O)c1ccc(Cc2c(C(=O)O)n(Cc3cc4c(cc3Cl)OCO4)c3ccccc3c2=O)cc1 |  | 
23 | 7.8 | 244 | COc1ccc(Cc2c(C(=O)O)n(Cc3cc4c(cc3Br)OCO4)c3ccccc3c2=O)cc1 |  | 
24 | 18.9 |  | COc1ccc(Cc2c(C(=O)O)n(Cc3cc(Br)c4c(c3)OCO4)c3ccccc3c2=O)cc1 |  | 
25 | 1 | 69 | CCc1cc2c(cc1Cn1c(C(=O)O)c(Cc3ccc(OC)cc3)c(=O)c3ccccc31)OCO2 |  | 
26 | 1.6 | 216 | COc1ccc(Cc2c(C(=O)O)n(Cc3cc4c(cc3Cl)OCO4)c3ccccc3c2=O)cc1 |  | 
27 | 5.6 | 190 | C=Cc1ccc(Cc2c(C(=O)O)n(Cc3cc4c(cc3Cl)OCO4)c3ccccc3c2=O)cc1 |  | 
28 | 1.8 | 70 | C=Cc1cc2c(cc1Cn1c(C(=O)O)c(Cc3ccc(OC)cc3)c(=O)c3ccccc31)OCO2 |  | 
